Measurements taken from US9212169B2, “Benzimidazole derivative and use thereof” (HYOGO COLLEGE OF MEDICINE, priority 2012, dated 2015).
Like-named read-outs stand apart in the source and are kept apart here.

Key:
[1] = target: T1, silkworm recombinant PCA-1 (Homo sapiens, UniProt Q96Q83); assay: Evaluation of PCA-1 inhibitory activity (demethylation of 3-methyl cytosine-containing oligo DNA, real-time PCR); type: biochemical; details: 37° C., 1 hr; for inhibition at 1 µM: test compound 1 μM; for inhibition at 10 µM: test compound 10 μM
T1 construct: made in house; host or cells: silkworm
T1 sequence (Q96Q83 1-286): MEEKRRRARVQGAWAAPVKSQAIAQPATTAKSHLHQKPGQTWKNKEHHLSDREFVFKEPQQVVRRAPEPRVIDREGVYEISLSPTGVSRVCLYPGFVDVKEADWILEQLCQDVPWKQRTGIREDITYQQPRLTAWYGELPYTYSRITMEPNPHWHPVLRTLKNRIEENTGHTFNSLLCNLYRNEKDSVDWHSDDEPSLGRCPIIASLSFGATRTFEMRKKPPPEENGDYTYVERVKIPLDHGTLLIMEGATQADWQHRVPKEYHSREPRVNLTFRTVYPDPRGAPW
Method: To an enzyme reaction solution (50 mM trishydrochloric acid buffer (pH 8.0), 2 mM ascorbic acid, 100 μM oxoglutaric acid, 40 μM ferric sulfate) containing 80 fmol 3-methyl cytosine-containing oligo DNA as a substrate were added a test compound (10 μM, 1 μM) and 4 ng silkworm recombinant PCA-1, and the mixture was incubated at 37° C. for 1 hr. After completion of the reaction, the enzyme reaction solution was 20-fold diluted with water to quench the reaction. Using 2 μL thereof, real-time PCR (Bio-Rad iQ SYBR Green Supermix) was performed in a 20 μL reaction system. The analytical curve was formed using a dilution series of the non-methylated oligoDNA. The primers used were forward primer 24 bases and reverse primer 22 bases. Reaction conditions: 95° C., 10 seconds→40 cycles of 95° C., 5 seconds, 61° C., 30 seconds, and 72° C., 15 seconds→95° C., 1 min→55° C., 1 min→55° C., 10 seconds, after which increased by 0.5° C. to 95° C. for 10 seconds→preserved at 25° C.
The degree of demethylation in the presence or absence of the test compound was compared and the inhibitory activity was evaluated.

[2] = tested on: DU145 (prostate cancer cell); assay: Cancer cell proliferation suppressive action, DU145 (WST-1); type: cell-based; details: Homo sapiens, read-out: DU145 proliferation inhibitory activity (%)
Method: cell line used: DU145 (prostate cancer cell: Institute of Development, Aging and Cancer, Tohoku University, Cell Resource Center for Biomedical Research)
evaluation of scaffolding dependency growth suppressive action:
The cells were plated on a 96 well plate at 5×10^3 cells/well/90 μL, and cultured overnight. The test compound (10 μM) was added and, after culture for 48 hr, a 1:9 mixture of aqueous 1-methoxy-5-methylphenazinium methylsulfate (PMS) solution and 2-(4-iodophenyl)-3-(4-nitrophenyl)-5-(2,4-disulfophenyl)-2H-tetrazolium, monosodium salt (WST-1)/20 mM 4-(2-hydroxyethyl)-1-piperazineethanesulfonic acid (HEPES) solution (DOJIN) was added by 10 μL, and the absorbance was measured at 450 nm 2 hr later. As a control wavelength, 630 nm was used.

DU145 cell xenograft = assay: Antitumor action using prostate cancer xenograft model; type: in vivo, BALB/c nu/nu mouse; details: subcutaneously administered, suspended in 0.5 w/v % carboxycellulose; tumor volume
Description: A prostate cancer xenograft model was produced as shown below.
DU145 cells (4×10^6 cells) were mixed with BD Matrigel Basememt Membrane Matrix High Concentration (Becton, Dickinson and Company), and subcutaneously transplanted to the back of BALB/c nu/nu mouse. After transplantation, the tumor was isolated when it reached a volume of about 200 mm^3, and subcutaneously transplanted into the back of a different BALB/c nu/nu mouse. This operation was repeated three times to generate a tumor derived from DU145 cells that grow stably. A model mouse for the evaluation of the compound was prepared by finely cutting the in vivo passaged tumor into about 10 mm^3, and subcutaneously transplanting same into the back of a BALB/c nu/nu mouse.
The compound of Example 1 was suspended in 0.5 w/v % sterile carboxycellulose (Wako Pure Chemical Industries, Ltd.), and subcutaneously administered to the back. The volume of the tumor was calculated using the formula of (long diameter)×(short diameter)^2×0.5.

| SMILES | inhibition at 1 µM [1] | inhibition at 10 µM [1] | inhibition at 10 µM ([2]; DU-145, test compound 10 μM, culture for 48 hr) | antitumor action in a DU145 cell xenograft model (FIG. 1) (DU145 cell xenograft) | inhibition at 10 µM ([2]; DU-145, 48 h) |
| --- | --- | --- | --- | --- | --- |
| Cc1nn(-c2nc3ccccc3[nH]2)c(O)c1Cc1ccc2ccccc2c1 [Example 19] | 38% | 76% |  |  |  |
| COc1ccc(Cc2c(C)nn(-c3nc4ccccc4[nH]3)c2O)cc1 [Example 31] | 47% | 85% |  |  |  |
| Cc1ccc2[nH]c(-n3nc(C)c(Cc4ccccc4Cl)c3O)nc2c1 [Example 33] | 54% | 82% |  |  |  |
| Cc1nn(-c2nc3cc(-c4ccc(Cl)cc4)ccc3[nH]2)c(O)c1Cc1ccccc1 [Example 35] | 25% | 77% |  |  |  |
| Cc1cc(O)n(-c2nc3ccccc3[nH]2)n1 [Example 15] | -1% | 76% |  |  |  |
| Cc1ccc2[nH]c(-n3nc(C)c(-c4ccccc4)c3O)nc2c1 [Example 42] | 37% | 65% |  |  |  |
| Cc1nn(-c2nc3ccccc3[nH]2)c(O)c1-c1ccccc1 [Example 18] | 27% | 74% |  |  |  |
| Cc1nn(-c2nc3ccccc3[nH]2)c(O)c1Cc1ccc(C(F)(F)F)cc1 [Example 24] | 61% | 67% |  |  |  |
| Cc1nn(-c2nc3ccccc3[nH]2)c(O)c1C [Example 13] | 19% | 76% |  |  | 22% |
| Cc1nn(-c2nc3ccccc3[nH]2)c(O)c1Cc1ccccc1 [Example 14] | 35% | 80% |  |  | 45% |

The next lines start with results.

| inhibition at 1 µM [1] | inhibition at 10 µM [1] | SMILES | inhibition at 10 µM ([2]; DU-145, test compound 10 μM, culture for 48 hr) | antitumor action in a DU145 cell xenograft model (FIG. 1) (DU145 cell xenograft) | inhibition at 10 µM ([2]; DU-145, 48 h) |
| --- | --- | --- | --- | --- | --- |
| 50% | 82% | Cc1nn(-c2nc3cc(C(F)(F)F)ccc3[nH]2)c(O)c1Cc1ccccc1 [Example 4, 3-methyl-4-(phenylmethyl)-1-(5-trifluoromethyl-1H-benzimidazol-2-yl)-1H-pyrazol-5-ol] |  |  |  |
| 39% | 68% | Cc1nn(-c2nc3ccccc3[nH]2)c(O)c1Cc1ccc(F)cc1 [Example 25] |  |  |  |
| 49% | 81% | Cc1ccc2[nH]c(-n3nc(C)c(Cc4ccc(F)cc4)c3O)nc2c1 [Example 32] |  |  |  |
| 49% | 80% | COc1ccc(Cc2c(C)nn(-c3nc4cc(C)ccc4[nH]3)c2O)cc1 [Example 34] |  |  |  |
| 38% | 64% | Cc1nn(-c2nc3cc(-c4ccccc4)ccc3[nH]2)c(O)c1Cc1ccccc1 [Example 37] |  |  |  |
| 24% | 81% | Cc1ccc2[nH]c(-n3nc(C)c(Cc4ccccc4)c3O)nc2c1 [Example 1, 1-(5-methyl-1H-benzimidazol-2-yl)-3-methyl-4-(phenylmethyl)-1H-pyrazol-5-ol] | 60% | antitumor action |  |
| 21% | 61% | Cc1ccc(-c2ccc3[nH]c(-n4nc(C)c(Cc5ccccc5)c4O)nc3c2)cc1 [Example 40] |  |  |  |
| 50% | 91% | Cc1nn(-c2nc3cc(C(C)(C)C)ccc3[nH]2)c(O)c1Cc1ccccc1 [Example 5, 1-[5-(1,1-dimethylethyl)-1H-benzimidazol-2-yl]-3-methyl-4-(phenylmethyl)-1H-pyrazol-5-ol] |  |  |  |
| 43% | 81% | CCCCCCc1c(C)nn(-c2nc3cc(C)ccc3[nH]2)c1O [Example 45] |  |  |  |
| 25% | 76% | Cc1ccc2[nH]c(-n3nc(C)c(C)c3O)nc2c1 [Example 17] |  |  |  |
| 21% | 60% | Cc1nn(-c2nc3cc(Cl)ccc3[nH]2)c(O)c1Cc1ccccc1 [Example 3, 1-(5-chloro-1H-benzimidazol-2-yl)-3-methyl-4-(phenylmethyl)-1H-pyrazol-5-ol] |  |  |  |
| 47% | 81% | Cc1ccc2[nH]c(-n3nc(C)c(CC4CCCCC4)c3O)nc2c1 [Example 46] |  |  |  |
| 36% | 82% | Cc1ccc2[nH]c(-n3nc(C)c(Cc4ccc5ccccc5c4)c3O)nc2c1 [Example 11, 3-methyl-1-(5-methyl-1H-benzimidazol-2-yl)-4-(2-naphthylmethyl)-1H-pyrazol-5-ol] |  |  |  |
